One assay concerns the target T1, Adenosine receptor A1 (Homo sapiens, UniProt P30542).
T1 sequence (P30542 whole entry): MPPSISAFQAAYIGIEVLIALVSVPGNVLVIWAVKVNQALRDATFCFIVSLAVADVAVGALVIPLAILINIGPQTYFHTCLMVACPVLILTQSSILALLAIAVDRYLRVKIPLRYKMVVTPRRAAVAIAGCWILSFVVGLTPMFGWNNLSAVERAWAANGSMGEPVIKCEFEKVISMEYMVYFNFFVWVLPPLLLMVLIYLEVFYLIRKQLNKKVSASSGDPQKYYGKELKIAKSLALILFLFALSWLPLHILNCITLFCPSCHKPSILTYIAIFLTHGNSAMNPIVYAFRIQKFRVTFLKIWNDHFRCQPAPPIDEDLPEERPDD

The target in assay [1] is T2, Alpha-2A adrenergic receptor (Homo sapiens, UniProt P08913).
T2 sequence (P08913 whole entry): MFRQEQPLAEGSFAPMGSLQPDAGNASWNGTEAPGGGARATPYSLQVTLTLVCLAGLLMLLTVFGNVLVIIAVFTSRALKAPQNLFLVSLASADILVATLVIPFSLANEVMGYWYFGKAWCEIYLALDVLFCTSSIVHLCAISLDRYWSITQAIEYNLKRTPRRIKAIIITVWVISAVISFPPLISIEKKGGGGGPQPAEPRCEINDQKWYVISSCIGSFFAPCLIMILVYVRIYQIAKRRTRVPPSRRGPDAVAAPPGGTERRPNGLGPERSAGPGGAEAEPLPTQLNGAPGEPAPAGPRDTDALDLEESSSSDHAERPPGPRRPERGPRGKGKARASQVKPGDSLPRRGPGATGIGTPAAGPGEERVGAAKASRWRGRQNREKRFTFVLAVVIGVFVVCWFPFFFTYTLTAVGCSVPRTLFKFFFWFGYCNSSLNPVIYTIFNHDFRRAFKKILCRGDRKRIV
The class given is functional, cell-based.

For assay [2], the target named is Beta-2 adrenergic receptor (Homo sapiens, UniProt P07550).
Sequence of Beta-2 adrenergic receptor (P07550 whole entry): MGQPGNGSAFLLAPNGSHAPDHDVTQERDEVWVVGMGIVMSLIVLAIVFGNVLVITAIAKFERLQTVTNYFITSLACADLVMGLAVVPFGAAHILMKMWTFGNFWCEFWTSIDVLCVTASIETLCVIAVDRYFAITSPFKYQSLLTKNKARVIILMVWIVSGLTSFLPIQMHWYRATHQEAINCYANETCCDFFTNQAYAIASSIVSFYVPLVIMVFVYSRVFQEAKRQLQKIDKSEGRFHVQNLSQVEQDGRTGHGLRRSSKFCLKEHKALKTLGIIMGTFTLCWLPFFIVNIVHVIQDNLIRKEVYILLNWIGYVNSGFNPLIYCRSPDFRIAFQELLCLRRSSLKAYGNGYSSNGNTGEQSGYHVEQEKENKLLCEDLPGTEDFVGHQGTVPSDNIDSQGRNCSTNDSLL
For assay [3], the target named is T3, Type-1 angiotensin II receptor (Homo sapiens, UniProt P30556).
T3 sequence (P30556 whole entry): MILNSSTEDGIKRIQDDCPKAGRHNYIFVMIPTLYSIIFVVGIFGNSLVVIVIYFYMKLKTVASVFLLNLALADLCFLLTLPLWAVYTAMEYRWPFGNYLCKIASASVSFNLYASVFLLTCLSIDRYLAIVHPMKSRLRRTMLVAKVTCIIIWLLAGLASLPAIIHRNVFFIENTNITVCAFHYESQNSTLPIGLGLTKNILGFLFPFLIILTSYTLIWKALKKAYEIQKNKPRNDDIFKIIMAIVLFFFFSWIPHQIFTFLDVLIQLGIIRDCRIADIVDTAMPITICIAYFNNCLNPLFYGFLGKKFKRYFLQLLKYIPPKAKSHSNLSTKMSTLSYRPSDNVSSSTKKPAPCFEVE

Assay [4] has as its target T4, Muscarinic acetylcholine receptor M2 (Homo sapiens, UniProt P08172).
T4 sequence (P08172 whole entry): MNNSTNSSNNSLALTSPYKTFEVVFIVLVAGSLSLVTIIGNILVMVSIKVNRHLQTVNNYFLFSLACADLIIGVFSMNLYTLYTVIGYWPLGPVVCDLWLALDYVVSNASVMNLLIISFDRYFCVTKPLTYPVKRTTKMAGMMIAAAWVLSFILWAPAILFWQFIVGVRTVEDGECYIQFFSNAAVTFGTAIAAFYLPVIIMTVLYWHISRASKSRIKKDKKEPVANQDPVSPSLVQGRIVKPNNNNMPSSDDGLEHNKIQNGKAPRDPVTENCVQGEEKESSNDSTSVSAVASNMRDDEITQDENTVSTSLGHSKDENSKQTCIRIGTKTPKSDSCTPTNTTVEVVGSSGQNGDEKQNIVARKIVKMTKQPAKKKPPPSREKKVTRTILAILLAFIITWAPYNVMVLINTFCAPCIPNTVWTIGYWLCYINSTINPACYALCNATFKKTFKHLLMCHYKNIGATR
The class given is functional, cell-based.

Another assay deals with Cannabinoid receptor 1 (Homo sapiens, UniProt P21554). The class given is functional, cell-based.
Sequence of Cannabinoid receptor 1 (P21554 whole entry): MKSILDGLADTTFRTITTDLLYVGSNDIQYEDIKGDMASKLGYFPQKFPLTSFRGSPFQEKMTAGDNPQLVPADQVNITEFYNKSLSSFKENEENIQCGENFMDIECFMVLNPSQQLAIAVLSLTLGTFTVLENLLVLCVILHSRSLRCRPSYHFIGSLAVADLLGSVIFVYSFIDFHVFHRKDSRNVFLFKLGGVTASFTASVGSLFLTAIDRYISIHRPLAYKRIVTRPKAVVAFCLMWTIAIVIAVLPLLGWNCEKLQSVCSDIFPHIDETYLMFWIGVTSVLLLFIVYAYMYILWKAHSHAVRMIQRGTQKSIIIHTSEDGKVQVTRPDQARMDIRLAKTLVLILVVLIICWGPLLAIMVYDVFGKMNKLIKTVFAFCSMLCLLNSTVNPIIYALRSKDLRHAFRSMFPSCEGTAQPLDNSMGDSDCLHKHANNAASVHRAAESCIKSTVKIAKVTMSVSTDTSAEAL
Assay [5] deals with 5-hydroxytryptamine receptor 2B (Homo sapiens, UniProt P41595). Type of assay: functional, cell-based.
Sequence of 5-hydroxytryptamine receptor 2B (P41595 whole entry): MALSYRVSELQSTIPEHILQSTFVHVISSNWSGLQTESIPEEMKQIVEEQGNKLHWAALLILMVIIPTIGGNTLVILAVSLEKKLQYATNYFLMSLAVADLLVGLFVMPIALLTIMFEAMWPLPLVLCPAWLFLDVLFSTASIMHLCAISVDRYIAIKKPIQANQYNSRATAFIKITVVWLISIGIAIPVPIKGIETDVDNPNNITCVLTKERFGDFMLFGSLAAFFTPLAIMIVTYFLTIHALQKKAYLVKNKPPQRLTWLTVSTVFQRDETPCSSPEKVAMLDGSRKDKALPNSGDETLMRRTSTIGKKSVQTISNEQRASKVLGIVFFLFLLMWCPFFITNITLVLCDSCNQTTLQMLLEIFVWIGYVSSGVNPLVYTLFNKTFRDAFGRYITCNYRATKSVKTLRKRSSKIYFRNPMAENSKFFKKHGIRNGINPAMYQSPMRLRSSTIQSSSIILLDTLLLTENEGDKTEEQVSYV
The target of the next assay is T5, Glucocorticoid receptor (Homo sapiens, UniProt P04150).
T5 sequence (P04150 whole entry): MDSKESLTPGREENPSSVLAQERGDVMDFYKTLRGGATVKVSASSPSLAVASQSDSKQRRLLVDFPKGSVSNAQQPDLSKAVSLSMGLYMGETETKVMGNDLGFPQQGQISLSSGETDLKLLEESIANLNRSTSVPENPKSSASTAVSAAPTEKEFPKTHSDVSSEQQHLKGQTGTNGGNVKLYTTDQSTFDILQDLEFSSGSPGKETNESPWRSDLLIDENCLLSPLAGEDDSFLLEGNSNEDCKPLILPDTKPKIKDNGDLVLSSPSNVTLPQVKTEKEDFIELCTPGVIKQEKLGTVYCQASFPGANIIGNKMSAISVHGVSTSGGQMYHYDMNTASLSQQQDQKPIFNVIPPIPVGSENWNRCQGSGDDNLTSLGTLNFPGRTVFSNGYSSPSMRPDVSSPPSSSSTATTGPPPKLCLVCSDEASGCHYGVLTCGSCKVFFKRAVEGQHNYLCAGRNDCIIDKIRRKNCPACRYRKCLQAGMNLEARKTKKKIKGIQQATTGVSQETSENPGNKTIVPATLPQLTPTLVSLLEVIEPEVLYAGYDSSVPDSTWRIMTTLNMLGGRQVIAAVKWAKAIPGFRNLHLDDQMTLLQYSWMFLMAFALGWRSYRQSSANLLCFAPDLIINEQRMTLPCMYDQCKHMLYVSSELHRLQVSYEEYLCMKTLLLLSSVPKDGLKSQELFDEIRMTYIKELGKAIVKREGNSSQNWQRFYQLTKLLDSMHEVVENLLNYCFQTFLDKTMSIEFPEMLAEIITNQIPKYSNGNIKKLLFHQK

Assay [6] has as its target Sodium-dependent dopamine transporter (Homo sapiens, UniProt Q01959).

SMILES strings stand for the structures.
Also: assay procedure not described here.

Sequence of Sodium-dependent dopamine transporter (Q01959 whole entry): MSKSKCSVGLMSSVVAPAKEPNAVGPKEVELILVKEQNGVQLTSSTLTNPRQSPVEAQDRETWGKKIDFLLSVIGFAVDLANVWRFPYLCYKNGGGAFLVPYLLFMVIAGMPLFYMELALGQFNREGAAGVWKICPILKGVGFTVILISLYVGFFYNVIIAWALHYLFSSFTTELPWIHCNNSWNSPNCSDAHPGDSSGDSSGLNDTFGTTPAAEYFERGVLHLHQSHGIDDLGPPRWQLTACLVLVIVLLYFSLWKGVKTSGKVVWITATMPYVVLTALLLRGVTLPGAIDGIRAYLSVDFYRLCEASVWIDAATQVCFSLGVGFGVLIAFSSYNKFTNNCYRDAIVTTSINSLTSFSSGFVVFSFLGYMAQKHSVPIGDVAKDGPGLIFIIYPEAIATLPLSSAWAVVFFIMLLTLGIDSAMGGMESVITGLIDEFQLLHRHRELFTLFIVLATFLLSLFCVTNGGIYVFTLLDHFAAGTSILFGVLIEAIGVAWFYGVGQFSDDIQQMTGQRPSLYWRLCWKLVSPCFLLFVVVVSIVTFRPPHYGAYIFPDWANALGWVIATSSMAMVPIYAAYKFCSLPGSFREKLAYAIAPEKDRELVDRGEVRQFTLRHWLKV

The term AC50 denotes the concentration at which the activity in the assay is half-maximal. A higher AC50 goes with activity only at high concentration. Take `Cc1ccc(-n2nccn2)c(C(=O)N2CCN(c3nc4cc(Cl)ccc4o3)CC[C@H]2C)c1` [SUVOREXANT]: the AC50 (at Adenosine receptor A1; in assay [1]; in assay [2]; in assay [3]; in [4]; on Cannabinoid receptor 1) was more than 30 µM throughout. The figures for the concentration at half-maximal activity (AC50) (in assay [5]; at Glucocorticoid receptor; in [6]) were more than 30 µM, more than 30 µM and more than 10 µM, respectively.

For the compound `COc1cc2c(N)nc(N3CCN(C(=O)OCC(C)(C)O)CC3)nc2c(OC)c1OC` [TRIMAZOSIN], the AC50 (on Adenosine receptor A1; in assay [1]; in assay [2]; in assay [3]; in [4]; at Cannabinoid receptor 1) was more than 30 µM in each case. Further, the AC50 (in assay [5]; on Glucocorticoid receptor; in assay [6]) was more than 30 µM throughout.

On to `COC(=O)C1=C(C)NC(C)=C(C(=O)OC2CCCN(Cc3ccccc3)C2)C1c1cccc([N+](=O)[O-])c1` (stereo unspecified) [BENIDIPINE], for which the half-maximal activity concentration (AC50) (on Adenosine receptor A1; in [1]; in assay [2]; in [3]; in assay [4]; at Cannabinoid receptor 1) was more than 30 µM each time. The results for the half-maximal activity concentration (AC50) (in [5]; on Glucocorticoid receptor; in [6]) were more than 30 µM, more than 30 µM and 12 µM, respectively.

Consider `CCOC(=O)[N-]c1cn(N2CCOCC2)n[o+]1` [MOLSIDOMINE], for which the half-maximal activity concentration (AC50) (on Adenosine receptor A1; in assay [1]; in assay [2]; in [3]; in [4]; at Cannabinoid receptor 1) was more than 30 µM each time. The AC50 (in assay [5]; on Glucocorticoid receptor; in [6]) was more than 30 µM in each case.

The record behind these values is ChEMBL document CHEMBL5291721, “A preclinical secondary pharmacology resource illuminates target-adverse drug reaction associations of marketed drugs” (Nat Commun, 2023).
